Measurements published in US12187705B2, “Heteroaryl-triazole and heteroaryl-tetrazole compounds as pesticides” (Bayer Aktiengesellschaft, priority 2018, dated 2025).

Tests used:
Assay type in all cases: in vivo
Nezara viridula = Nezara viridula spray test; conditions: in Hordeum vulgare, 96 h
Summary of the method: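 Barley plants infested with stink bug larvae were sprayed with compound diluted in water containing 1000 ppm emulsifier. Mortality (%) was scored after 4 days, 100% meaning all bugs killed.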

Myzus persicae [1] = assay: Myzus persicae oral test; conditions: 120 h
Summary of the method: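 Feeding test: compound diluted in water was combined with IPL41 insect medium (33%+15% sugar) under a parafilm seal. A mixed population of green peach aphids fed through the membrane. Mortality (%) was scored after 5 days.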

Diabrotica balteata = Diabrotica balteata spray test; conditions: 160 μg/well, wheat seeds, after 7 days; for pest or weed control at 160 µg/disc, 160 µg/well: Diabrotica balteata, 168 h, read-out: efficacy (seedlings grown)
Summary of the method: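 Wheat seeds germinated 1 day on agar were sprayed with compound diluted in water with 1000 ppm emulsifier, then infested with 10-20 Diabrotica balteata larvae. Efficacy in % scored after 7 days: 100% = seedlings grown as untreated, uninfected control; 0% = no seedlings grown.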

Tetranychus urticae = Tetranychus urticae spray test OP-resistant; conditions: French bean leaf disks, after 6 days; for mortality at 500 g/ha: Tetranychus urticae, foliar, 144 h; for mortality: 500 g/ha
Procedure: Tetranychus urticae—Spray Test OP-Resistant
(§1) To produce a suitable preparation of active compound, 1 part by weight of active compound is mixed with the stated amount of solvents and is diluted with water, containing an emulsifier concentration of 1000 ppm, to the desired concentration. Further test concentrations are prepared by dilution with emulsifier containing water.
French bean (Phaseolus vulgaris) leaf disks infected with all instars of the two spotted spidermite (Tetranychus urticae), are sprayed with a preparation of the active ingredient of the desired concentration.
After 6 days mortality in % is determined. 100% means all spider mites have been killed and 0% means none of the spider mites have been killed.

Nilaparvata lugens = Nilaparvata lugens spray test; conditions: Nilaparvata lugens, in Oryza sativa, 96 h
Summary of the method: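 Rice plants sprayed with compound diluted in water containing 1000 ppm emulsifier, then infested with brown planthopper. Mortality (%) scored after 4 days, 100% meaning all insects killed.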

Spodoptera frugiperda = Spodoptera frugiperda spray test; conditions: in Zea mays, 168 h
Summary of the method: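 Caterpillars are placed on sprayed, dried maize leaf sections. Sprays contain compound diluted in water with emulsifier at 1000 ppm; mortality in % is determined 7 days later.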

Phaedon cochleariae = Phaedon cochleariae spray test; conditions: foliar, 168 h, Chinese cabbage leaf disks, after 7 days
Procedure: Phaedon cochleariae—Spray Test
as §1
Chinese cabbage (Brassica pekinensis) leaf disks are sprayed with a preparation of the active ingredient of the desired concentration. Once dry, the leaf disks are infested with mustard beetle larvae (Phaedon cochleariae).
After 7 days mortality in % is determined. 100% means all beetle larvae have been killed and 0% means none of the beetle larvae have been killed.

Ctenocephalides felis [2] = assay: Ctenocephalides felis in-vitro contact test adult cat flea; conditions: 5 μg/cm^2 (=500 g/ha), after 48 hours; for pest or weed control at 5 µg/cm2, 5 µg/cm2: Ctenocephalides felis, read-out: efficacy (fleas dead or moribund)
Summary of the method: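 Compound in acetone was coated on glass tube walls, giving 5 μg/cm^2 at 900 ppm. 5-10 adult cat fleas were held at room temperature for 48 h, then heat-challenged at 45-50° C. Fleas immotile or uncoordinated were scored dead/moribund, expressed as % efficacy.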

Rhipicephalus sanguineus = Rhipicephalus sanguineus in-vitro contact test with adult brown dog ticks; conditions: 5 μg/cm^2 (=500 g/ha), after 48 hours
Procedure: Rhipicephalus sanguineus—In-Vitro Contact Test with Adult Brown Dog Ticks
9 mg compound is solved in 1 ml acetone and diluted with acetone to the desired concentration. 250 μl of the test solution is filled in 25 ml glass test tubes and homogeneously distributed on the inner walls by rotation and tilting on a shaking device (2 h at 30 rpm). With a compound concentration of 900 ppm, an inner surface of 44.7 cm^2 and a homogeneous distribution, a dose of 5 μg/cm^2 is achieved.
After the solvent has evaporated, each test tube is filled with 5-10 adult brown dog ticks (Rhipicephalus sanguineus), closed with a perforated lid and incubated in a lying position at room temperature and relative humidity. After 48 hours efficacy is determined. The ticks are patted on the ground of the tubes and are incubated on a heating plate at 45-50° C. for at most 5 minutes. Immotile or uncoordinated moving ticks, which are not able to escape the heat by climbing upwards, are marked as dead or moribund.
An efficacy of 100% means all ticks are dead or moribund; 0% means no ticks are dead or moribund.

Ctenocephalides felis [3] = assay: Ctenocephalides felis oral test; conditions: for mortality at 100 ppm: Ctenocephalides felis, in Bos taurus, po, 48 h
Summary of the method: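 About 20 adult unfed fleas fed through parafilm on cattle blood containing compound (DMSO concentrate diluted in blood); blood held at 37° C., fleas at room temperature. Mortality in % scored after 2 days (100% = all killed).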

Boophilus microplus = Boophilus microplus injection test; conditions: 20 μg/animal, egg deposition after 7 days; for pest or weed control at 0.02 mg: Rhipicephalus microplus, 168 h, read-out: efficacy (infertile eggs)
Summary of the method: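 Engorged adult female ticks, five per dose, received 1 μl of compound in DMSO injected into the abdomen and were kept in a climate chamber. Fertile egg deposition was checked after 7 days, with eggs of unclear fertility held until hatching at about 42 days. Efficacy 100% = all eggs infertile, 0% = all fertile.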

[4] = test system: cattle ticks (Boophilus microplus) strane Parhurst, SP-resistant; assay: Boophilus microplus dip test; conditions: 100 ppm, egg deposition after 7 days
Procedure: Boophilus microplus—Dip Test
Test animal: cattle ticks (Boophilus microplus) strane Parhurst, SP-resistant
Solvent: dimethyl sulfoxide
To produce a suitable preparation of active compound, 10 mg of active compound are dissolved in 0.5 ml solvent, and the concentrate is diluted with water to the desired concentration.
This compound solution is pipetted into tubes. 8-10 engorged, adult, female cattle ticks (Boophilus microplus) are placed in perforated tubes. These tubes are immersed in the aqueous compound solution until the ticks are completely moistened. After the liquid has drained off, the ticks are transferred to a filter paper in a plastic tray and stored in a climate chamber.
After 7 days egg deposition of fertile eggs is monitored. Eggs where fertility is not visible are stored in a climate chamber till hatching after about 42 days. An efficacy of 100% means all eggs are infertile; 0% means all eggs are fertile.

[5] = test system: Culex quinquefasciatus strain P00; assay: Culex quinquefasciatus test (CULXFA surface treatment & contact assay); conditions: 24 hours after contact, read-out: efficacy (mortality); for mortality at 4 mg/m2: surface concentration 4 mg/m^2, 30 minutes exposure; for mortality at 20 mg/m2: surface concentration 20 mg/m^2, 30 minutes exposure
Summary of the method: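 Compound dissolved in acetone (2 mg/ml) with 2000 ppm rapeseed oil methyl ester, applied to glazed tile and dried. Adult strain P00 mosquitoes exposed to the surface for 30 minutes. Percent mortality scored 24 hours after contact.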

[6] = test system: Aedes aegypti strain MONHEIM; assay: Aedes aegypti test (AEDSAE surface treatment & contact assay); conditions: 24 hours after contact, read-out: efficacy (mortality); for mortality at 4 mg/m2: surface concentration 4 mg/m^2, 30 minutes exposure; for mortality at 20 mg/m2: surface concentration 20 mg/m^2, 30 minutes exposure
Summary of the method: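 Compound dissolved in acetone (2 mg/ml) with 2000 ppm rapeseed oil methyl ester and dried onto a glazed tile. Adult mosquitoes held on the treated surface for 30 minutes exposure. Percent mortality scored 24 hours after contact.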

Myzus persicae [7] = assay: Myzus persicae spray test; conditions: in Brassica rapa, foliar, 120 h
Summary of the method: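 Chinese cabbage leaf disks infested with all aphid instars were sprayed with compound diluted in water containing emulsifier (1000 ppm). Mortality (%) was scored after 5 days, 100% meaning all aphids killed.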

SMILES | mortality at 500 g/ha (Nezara viridula) [%] | mortality at 4 ppm (Myzus persicae [1]) [%] | mortality at 20 ppm (Myzus persicae [1]) [%] | pest or weed control at 160 µg/disc, 160 µg/well (Diabrotica balteata) [%] | mortality at 500 g/ha (Nilaparvata lugens) [%] | mortality at 500 g/ha (Spodoptera frugiperda) [%] | mortality at 500 g/ha (Phaedon cochleariae) [%] | pest or weed control at 5 µg/cm2, 5 µg/cm2 (Ctenocephalides felis [2]) [%] | mortality at 100 ppm (Ctenocephalides felis [3]) [%] | pest or weed control at 0.02 mg (Boophilus microplus) [%] | efficacy (infertile eggs) [4] [%] | efficacy (seedlings grown) (Diabrotica balteata) [%] | efficacy (infertile eggs) (Boophilus microplus) [%] | efficacy (fleas dead or moribund) (Ctenocephalides felis [2]) [%] | also measured
CC(c1ncnn1-c1ncccn1)N(CC1CC1)C(=O)c1cccc(S(=O)(=O)C(F)(F)F)c1 (centres unmarked) [Example I-005, N-(cyclopropylmethyl)-N-{1-[1-(pyrimidin-2-yl)-1H-1,2,4-triazol-5-yl]ethyl}-3-[(trifluoromethyl)sulfonyl]benzamide] | 100 | 90 | 100 | 100 | 100 | 100 | 100 | 90 | – | – | – | – | – | – | mortality at 500 g/ha (Tetranychus urticae): 80%
CC(c1ncnn1-c1ncccn1)N(CC1CC1)C(=O)c1cncc(S(=O)(=O)C(F)(F)F)c1 (centres unmarked) [Example I-006] | 100 | 90 | 100 | 100 | 100 | – | 100 | 90 | 100 | 100 | – | – | – | – | mortality at 500 g/ha (Tetranychus urticae): 95%; pest or weed control at 5 µg/cm2, 5 µg/cm2 (Rhipicephalus sanguineus; Rhipicephalus sanguineus, read-out: efficacy (ticks dead or moribund)): 80%
CC(c1ncnn1-c1ncccn1)N(CC1CC1)C(=O)c1cc(C2CC2)cc(C(F)(F)F)c1 (centres unmarked) [Example I-008] | 100 | 100 | 100 | 100 | 100 | 100 | 100 | – | – | – | – | – | – | – | mortality at 500 g/ha (Tetranychus urticae): 95%
CC(NC(=O)c1cc(Cl)cc(S(C)(=O)=O)c1)c1ncnn1-c1ncccn1 (centres unmarked) [Example I-020, 3-chloro-5-(methylsulfonyl)-N-{1-[1-(pyrimidin-2-yl)-1H-1,2,4-triazol-5-yl]ethyl}benzamide] | 100 | 100 | 100 | 100 | 100 | – | 100 | 100 | 100 | 100 | 100 | – | – | – | –
Cc1nc(C(C)NC(=O)c2cc(Cl)cc(S(C)(=O)=O)c2)n(-c2ncccn2)n1 (centres unmarked) [Example I-034] | – | – | – | – | – | – | – | – | – | – | 100 | 100 | 100 | 100 | efficacy (ticks dead or moribund) (Rhipicephalus sanguineus): 80%
CC(NC(=O)c1cc(Cl)cc(S(C)(=O)=O)c1)c1ncnn1-c1ccc(C#N)cn1 (centres unmarked) [Example I-035] | – | – | – | – | – | – | – | – | – | – | 100 | 100 | 100 | 100 | –
CC(NC(=O)c1cc(Cl)cc(S(C)(=O)=O)c1)c1ncnn1-c1ncc(F)cn1 (centres unmarked) [Example I-036] | – | – | – | – | – | – | – | – | – | – | 90 | 100 | 100 | 100 | efficacy (ticks dead or moribund) (Rhipicephalus sanguineus): 80%
C[C@@H](NC(=O)c1cc(Cl)cc(S(C)(=O)=O)c1)c1ncnn1-c1ncc(Cl)cn1 [Example I-038] | 100 | 100 | – | – | – | 100 | – | 100 | 100 | 100 | 100 | – | – | – | mortality at 4 mg/m2 [5]: 80 to 100%; mortality at 20 mg/m2 [5]: 80 to 100%; mortality at 4 mg/m2 [6]: 80 to 100%; mortality at 20 mg/m2 [6]: 90 to 100%
CCS(=O)(=O)c1cc(Cl)cc(C(=O)N[C@@H](C)c2ncnn2-c2ncccn2)c1 [Example I-044, 3-chloro-5-(ethylsulfonyl)-N-{(1S)-1-[1-(pyrimidin-2-yl)-1H-1,2,4-triazol-5-yl]ethyl}benzamide] | 100 | 100 | – | 100 | 100 | 83 | – | 100 | 100 | 100 | 100 | – | – | – | mortality at 4 mg/m2 [5]: 80 to 100%; mortality at 20 mg/m2 [5]: 80 to 100%; mortality at 4 mg/m2 [6]: 80 to 100%; mortality at 20 mg/m2 [6]: 90 to 100%; mortality at 500 g/ha (Myzus persicae [7]): 100%
CC(C)Sc1cc(Cl)cc(C(=O)N[C@@H](C)c2ncnn2-c2ncccn2)c1 [Example I-046, 3-chloro-5-(isopropylsulfanyl)-N-{(1S)-1-[1-(pyrimidin-2-yl)-1H-1,2,4-triazol-5-yl]ethyl}benzamide] | 100 | 100 | – | – | 90 | 100 | – | 100 | 100 | 100 | 100 | – | – | – | mortality at 20 mg/m2 [5]: 80 to 100%; mortality at 20 mg/m2 [6]: 90 to 100%; mortality at 500 g/ha (Myzus persicae [7]): 100%
CC(NC(=O)c1cc(Cl)cc(C2CC2)c1)c1ncnn1-c1ncccn1 (centres unmarked) [Example I-050] | – | – | – | – | – | – | – | – | – | – | 90 | 80 | 100 | 100 | –
CC(NC(=O)c1ccc(S(=O)(=O)C(F)(F)F)cc1)c1ncnn1-c1ncccn1 (centres unmarked) [Example I-056] | – | – | – | – | – | – | – | – | – | – | – | – | – | – | mortality (Tetranychus urticae): 90%; mortality (Ctenocephalides felis [3]; 100 ppm in cattle blood, after 2 days): 90%
CC(NC(=O)c1cncc(-c2ccc(Cl)cc2)c1)c1ncnn1-c1ncccn1 (centres unmarked) [Example I-112] | – | – | – | – | – | – | – | – | – | – | – | – | – | – | mortality (Tetranychus urticae): 90%
